Values quoted from earlier work as cited in patent US20240315940A1, “Topical Nourishing/Antimicrobial Compositions” (Laboratory Skin Care, Inc., priority 2021, published 2024).

Tested on: bacteria, fungi, Pseudomonas aeruginosa, Pseudomonas capacia, Staphylococcus aureus, Escherichia coli, Candida albicans, Aspergillus niger, Salmonella …
Details: whole genera of microorganisms

SMILES: Oc1cc(Cl)ccc1Oc1ccc(Cl)cc1Cl [triclosan]
- effectiveness against microorganisms: effective
